Data set [1] relates to Vero C1008. Description: AUC (cytotoxicity %) of compound against Vero E6 cells by MTT assay. Format: toxicity, cell-based. The conditions noted are these: chlorocebus sabaeus. Background: Tetrazolium assays rely on reduction of a dye to a coloured formazan, in cell work by metabolically active cells.
The subject of data set [2] is SARS-CoV-2. To be noted: Chlorocebus sabaeus; Vero C1008.
Data set [3] concerns the target Voltage-gated inwardly rectifying potassium channel KCNH2 (Homo sapiens, UniProt Q12809).
Description: hERG binding assays: Displacement of [3H]-Dofetilide (5 nM final) from hERG membranes obtained from HEK293 cells
Data set [4] concerns the target Sigma intracellular receptor 2 (Homo sapiens, UniProt Q5BJF2). In words: Displacement of [3H]-DTG from the Sigma2 receptor. For orientation: In a radioligand displacement assay an active substance lowers the binding of a labelled ligand.
Data set [5] deals with T1, Alpha-2A adrenergic receptor (Homo sapiens, UniProt P08913).
T1 sequence (P08913 whole entry): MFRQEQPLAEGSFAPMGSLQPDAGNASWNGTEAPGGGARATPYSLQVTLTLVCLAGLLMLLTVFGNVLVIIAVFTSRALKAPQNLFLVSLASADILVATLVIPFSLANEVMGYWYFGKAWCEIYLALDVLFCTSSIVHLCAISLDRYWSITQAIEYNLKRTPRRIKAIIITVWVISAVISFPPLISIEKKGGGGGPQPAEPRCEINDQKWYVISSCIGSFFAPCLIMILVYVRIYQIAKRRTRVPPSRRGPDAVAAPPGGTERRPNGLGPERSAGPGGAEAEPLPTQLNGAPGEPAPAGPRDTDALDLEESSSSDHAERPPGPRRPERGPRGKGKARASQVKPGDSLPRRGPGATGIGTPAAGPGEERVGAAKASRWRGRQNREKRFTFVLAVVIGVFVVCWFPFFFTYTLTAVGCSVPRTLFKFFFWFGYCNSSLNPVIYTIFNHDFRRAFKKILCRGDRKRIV
Description: Activity of compound against Alpha-2A (ADRA2A) adrenergic receptor by displacement of [3H]-rauwolscine.

In data set [6] the target is T2, Muscarinic acetylcholine receptor M5 (Homo sapiens, UniProt P08912).
T2 sequence (P08912 whole entry): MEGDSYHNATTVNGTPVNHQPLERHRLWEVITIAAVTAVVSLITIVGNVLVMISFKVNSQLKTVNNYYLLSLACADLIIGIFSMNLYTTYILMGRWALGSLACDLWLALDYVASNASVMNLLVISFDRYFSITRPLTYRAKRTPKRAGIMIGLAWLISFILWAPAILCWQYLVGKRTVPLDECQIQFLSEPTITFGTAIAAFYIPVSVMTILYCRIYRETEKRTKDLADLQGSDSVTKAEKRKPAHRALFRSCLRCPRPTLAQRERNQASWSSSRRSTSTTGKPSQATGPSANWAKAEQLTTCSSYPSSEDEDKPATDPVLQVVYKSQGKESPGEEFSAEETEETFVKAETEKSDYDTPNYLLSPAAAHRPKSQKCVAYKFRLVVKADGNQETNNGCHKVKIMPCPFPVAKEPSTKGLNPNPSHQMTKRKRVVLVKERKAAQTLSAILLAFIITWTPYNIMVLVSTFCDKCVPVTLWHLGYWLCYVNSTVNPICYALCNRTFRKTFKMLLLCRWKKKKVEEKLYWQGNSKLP
In words: Activity of compound against Muscarinic acetylcholine receptor M5 (CHRM5) by displacement of 3H-QNB.

Data set [7] addresses Sigma non-opioid intracellular receptor 1 (Homo sapiens, UniProt Q99720).
Description: Displacement of [3H]-pentazocin from the Sigma1 receptor
In data set [8] the target is T3, Muscarinic acetylcholine receptor M4 (Homo sapiens, UniProt P08173).
T3 sequence (P08173 whole entry): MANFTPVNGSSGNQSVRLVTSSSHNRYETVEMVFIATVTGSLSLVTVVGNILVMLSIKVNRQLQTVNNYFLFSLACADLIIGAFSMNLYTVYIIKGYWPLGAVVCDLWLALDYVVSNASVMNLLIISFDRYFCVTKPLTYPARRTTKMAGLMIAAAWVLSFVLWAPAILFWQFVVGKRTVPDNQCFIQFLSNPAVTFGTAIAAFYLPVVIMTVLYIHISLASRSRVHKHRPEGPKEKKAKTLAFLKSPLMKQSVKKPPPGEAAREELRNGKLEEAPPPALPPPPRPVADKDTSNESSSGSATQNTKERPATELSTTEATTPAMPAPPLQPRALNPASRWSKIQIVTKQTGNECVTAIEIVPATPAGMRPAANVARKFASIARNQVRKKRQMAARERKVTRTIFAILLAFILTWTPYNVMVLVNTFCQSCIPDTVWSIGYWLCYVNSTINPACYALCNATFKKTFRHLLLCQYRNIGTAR
Description: Activity of compound against Muscarinic acetylcholine receptor M4 (CHRM4) by displacement of 3H-QNB.

Data set [9] deals with T4, Muscarinic acetylcholine receptor M2 (Homo sapiens, UniProt P08172).
T4 sequence (P08172 whole entry): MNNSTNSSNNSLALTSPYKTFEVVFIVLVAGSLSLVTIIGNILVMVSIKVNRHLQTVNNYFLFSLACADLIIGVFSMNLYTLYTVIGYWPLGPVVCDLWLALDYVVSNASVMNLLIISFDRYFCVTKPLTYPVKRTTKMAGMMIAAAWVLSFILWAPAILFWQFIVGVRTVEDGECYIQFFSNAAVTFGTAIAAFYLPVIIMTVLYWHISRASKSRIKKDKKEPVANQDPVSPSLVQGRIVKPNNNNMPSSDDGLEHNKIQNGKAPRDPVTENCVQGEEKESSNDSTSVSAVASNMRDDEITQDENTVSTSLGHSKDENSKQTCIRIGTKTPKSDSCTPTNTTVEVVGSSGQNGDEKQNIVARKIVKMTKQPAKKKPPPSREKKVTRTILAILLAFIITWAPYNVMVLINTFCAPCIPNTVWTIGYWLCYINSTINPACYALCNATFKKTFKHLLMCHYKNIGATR
In words: Activity of compound against Muscarinic acetylcholine receptor M2 (CHRM2) by displacement of 3H-QNB.

For data set [10], the system named is SARS-CoV-2. Description: IC90 for antiviral activity against SARS-CoV-2 in the Vero E6 cell line by measuring infectious viral titer of supernatent from compound-treated Vero E6 cells by Median Tissue Culture Infectious Dose (TCID)50 by the method of Reed and Muench. Format: functional, Chlorocebus sabaeus. To be noted: Severe acute respiratory syndrome coronavirus 2, Vero C1008.

Data set [11] in a line: (§1) Cytotoxicity of compound against Vero E6 cells by MTT assay. The conditions noted are these: chlorocebus sabaeus, Vero E6 cells.
Data set [12] concerns Vero C1008. Described as §1. The conditions noted are these: chlorocebus sabaeus, vero c1008.
Data set [13] can be described thus: in vitro. To be noted: monkey, Vero E6 cells.
In data set [14] the test system is SARS-CoV-2. The conditions noted are these: Chlorocebus sabaeus; Vero C1008. This is another data set of the same source.

Activity calls are given as the source filed them. The calls are words filed in the database; no cut-off is given here.

Sigma intracellular receptor 2, sequence (Q5BJF2 whole entry): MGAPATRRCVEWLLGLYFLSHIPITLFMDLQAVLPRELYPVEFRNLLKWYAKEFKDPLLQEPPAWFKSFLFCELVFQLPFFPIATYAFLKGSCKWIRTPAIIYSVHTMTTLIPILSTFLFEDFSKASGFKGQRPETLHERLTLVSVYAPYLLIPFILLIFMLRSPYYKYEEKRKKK
Sigma non-opioid intracellular receptor 1, sequence (Q99720 whole entry): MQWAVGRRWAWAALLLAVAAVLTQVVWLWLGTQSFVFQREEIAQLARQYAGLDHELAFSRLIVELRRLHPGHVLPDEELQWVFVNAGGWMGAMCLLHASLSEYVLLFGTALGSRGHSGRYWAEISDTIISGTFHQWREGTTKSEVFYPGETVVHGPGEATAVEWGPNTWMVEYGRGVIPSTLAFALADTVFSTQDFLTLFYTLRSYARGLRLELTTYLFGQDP
Voltage-gated inwardly rectifying potassium channel KCNH2, sequence (Q12809 whole entry): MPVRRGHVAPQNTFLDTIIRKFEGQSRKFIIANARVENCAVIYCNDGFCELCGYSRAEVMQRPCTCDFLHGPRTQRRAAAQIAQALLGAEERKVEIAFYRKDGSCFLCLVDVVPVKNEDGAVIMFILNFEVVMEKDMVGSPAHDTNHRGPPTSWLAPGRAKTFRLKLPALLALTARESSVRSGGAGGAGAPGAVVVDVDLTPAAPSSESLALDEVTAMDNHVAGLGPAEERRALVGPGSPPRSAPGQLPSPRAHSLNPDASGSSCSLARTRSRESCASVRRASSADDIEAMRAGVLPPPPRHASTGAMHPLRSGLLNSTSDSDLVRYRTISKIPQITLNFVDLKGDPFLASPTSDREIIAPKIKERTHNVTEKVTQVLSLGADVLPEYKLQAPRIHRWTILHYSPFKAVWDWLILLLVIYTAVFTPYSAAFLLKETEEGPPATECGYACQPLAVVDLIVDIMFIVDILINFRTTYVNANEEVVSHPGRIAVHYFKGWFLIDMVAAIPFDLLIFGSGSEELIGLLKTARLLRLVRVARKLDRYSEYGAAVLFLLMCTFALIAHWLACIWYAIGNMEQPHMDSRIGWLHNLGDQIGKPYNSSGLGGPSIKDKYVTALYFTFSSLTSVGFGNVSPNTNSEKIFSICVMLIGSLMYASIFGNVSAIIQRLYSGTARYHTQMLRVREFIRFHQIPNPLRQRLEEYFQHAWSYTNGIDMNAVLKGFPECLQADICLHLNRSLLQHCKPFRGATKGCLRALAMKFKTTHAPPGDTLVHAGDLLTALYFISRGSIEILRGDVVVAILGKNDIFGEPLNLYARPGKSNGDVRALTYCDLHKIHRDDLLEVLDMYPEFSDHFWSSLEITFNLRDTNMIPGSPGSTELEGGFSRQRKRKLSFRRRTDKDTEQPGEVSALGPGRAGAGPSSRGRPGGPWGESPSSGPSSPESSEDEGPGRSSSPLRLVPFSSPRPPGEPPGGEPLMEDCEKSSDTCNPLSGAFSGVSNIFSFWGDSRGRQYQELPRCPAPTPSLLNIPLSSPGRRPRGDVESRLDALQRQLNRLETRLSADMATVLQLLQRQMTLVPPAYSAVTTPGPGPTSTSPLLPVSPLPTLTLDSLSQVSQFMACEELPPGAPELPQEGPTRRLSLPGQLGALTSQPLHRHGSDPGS

Broadly, the Ki is the equilibrium dissociation constant of an inhibitor or competing ligand from its target. Low values mean a stronger hold on the target, high ones a looser hold on the target. As usually defined, the IC90 is the concentration needed for an effect of 90%. Take `CCN(CCO)CCCC(C)Nc1ccnc2cc(Cl)ccc12` (stereo not given) [HYDROXYCHLOROQUINE]: in [1], the AUC cytotoxicity was 234.6. For the same compound, the AUC in [2] is 140. For the same compound, the inhibition constant (Ki) was 2.51 µM in data set [3]; 1 µM in data set [4]; 6.46 µM in [5]; 20 µM in data set [6]; 0.126 µM in data set [7]; 5.5 µM in [8]. Besides, the affinity in [9], expressed as Ki, was 5.13 µM. In data set [10], this compound yielded an IC90 of 5.78 µM.

The term CC50 denotes the concentration at which the toxic effect on the cells reaches its halfway point. As for `COc1cc2c(c(OC)n1)[C@]1(O)[C@H](O)[C@H](CN(C)C)[C@@H](c3ccccc3)[C@]1(c1ccc(C#N)cc1)O2` [ZOTATIFIN], in data set [11], the CC50 is 0.00512 µM (active). The IC90 in data set [10] came to 0.037 µM.

As for `N=C(N)c1ccc2cc(OC(=O)c3ccc(N=C(N)N)cc3)ccc2c1` [NAFAMOSTAT], the AUC cytotoxicity in data set [1] amounted to 279.9. The pCC50 in data set [12] is recorded as ~ 2.44. Also, the selectivity ratio in [13] is 0.926 (inactive).

Consider `CCOC(=O)N1CCC(=C2c3ccc(Cl)cc3CCc3cccnc32)CC1` [LORATADINE], for which, in [14], the pIC50 result was “Linear Fit; INACTIVE”. In addition, the pCC50 result in data set [12] is “Linear Fit”.

`CN(C)C(=N)N=C(N)N` [METFORMIN] yielded an AUC cytotoxicity in data set [1] of 305.4. The cytotoxic concentration (CC50) in data set [11] is roughly 33.6 µM. In addition, the selectivity ratio in [13] turned out to be 1.04.

Take `CCN(CC)CCCC(C)Nc1ccnc2cc(Cl)ccc12` (stereo not given) [CHLOROQUINE]: the Ki in data set [4] was 0.501 µM; in data set [6], 21.9 µM; in data set [7] it was 0.0794 µM; in [8], 5.75 µM.

For `COc1cccc2c1CCCC2CCCN1CCN(C2CCCCC2)CC1` (stereo not given), in [10], the 90% effect concentration (IC90) came to 0.278 µM.

Source of the values: ChEMBL document CHEMBL4303773 (Nature, 2020).
